Source: PubChem BioAssay AID720632 (Broad Institute, 2013)
Calls of active or inactive are those of the source. How the calls were made is not given here.

These compounds were tested against Caspase-6 (Homo sapiens) (UniProt P55212) (assay: inhibition of CASP6 peptide cleavage – biochemical, VEID-R110 fluorescence, cherry-pick, dose response (AID 720632)). Conditions: caspase-6, VEID-R110 fluorogenic substrate; at 8 µM (top of the series).
Chain of Caspase-6 (Homo sapiens) (P55212 24-179 limits assumed): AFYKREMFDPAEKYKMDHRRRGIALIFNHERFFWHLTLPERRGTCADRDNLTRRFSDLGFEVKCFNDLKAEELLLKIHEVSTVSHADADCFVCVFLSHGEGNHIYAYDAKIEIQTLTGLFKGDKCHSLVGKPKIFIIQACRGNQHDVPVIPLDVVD
Chain of Caspase-6 (Homo sapiens) (P55212 194-293 limits assumed): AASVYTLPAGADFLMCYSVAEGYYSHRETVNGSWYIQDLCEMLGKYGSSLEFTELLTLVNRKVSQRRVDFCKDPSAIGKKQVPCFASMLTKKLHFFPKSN

Row | activity change, negative = inhibition | SMILES
1 | inactive | CN(C)CCCN(C(=O)c1ccc([N+](=O)[O-])s1)c1nc2cc3c(cc2s1)OCCO3

Same assay, conditions: caspase-6, VEID-R110 fluorogenic substrate; at 23.5 µM (top of the series)

Row | activity change, negative = inhibition | SMILES
2 | inactive | COCC(=O)Nc1ccc2c(c1)OC[C@H](C)N(CC1CC1)C[C@@H](C)[C@H](OC)CN(C)C2=O

Same assay, conditions: caspase-6, VEID-R110 fluorogenic substrate; at 26 µM (top of the series)

Row | activity change, negative = inhibition | SMILES
3 | inactive | Cc1cc(N2CCCC2)ccc1NC(=O)CN1C(=O)NC2(CCCCC2)C1=O
4 | inactive | CO[C@@H]1CN(C)C(=O)c2ccc(NC(=O)C3CC3)cc2OC[C@H](C)N(Cc2ccccc2)C[C@@H]1C
5 | inactive | CCCN1C[C@H](C)[C@H](OC)CN(C)C(=O)c2ccc(NC(=O)c3ccccc3)cc2OC[C@@H]1C
6 | inactive | CO[C@H]1CN(C)C(=O)c2ccc(NC(=O)C3CC3)cc2OC[C@@H](C)N(Cc2cccc(F)c2)C[C@@H]1C
7 | inactive | O=C(NCC1COc2ccccc2O1)c1ccc(F)c(S(=O)(=O)N2CCOCC2)c1 (stereo not drawn)
8 | inactive | COC(=O)c1ccc(C(=O)OC)c(NC(=O)CN(c2ccc3c(c2)OCO3)S(C)(=O)=O)c1
9 | inactive | COc1ccccc1C(=O)Nc1ccc2c(c1)OC[C@@H](C)N(CC1CC1)C[C@@H](C)[C@@H](OC)CN(C)C2=O
10 | inactive | CCCC(=O)Nc1ccc2c(c1)OC[C@@H](C)NC[C@H](C)[C@@H](OC)CN(C)C2=O
11 | inactive | CO[C@H]1CN(C)C(=O)c2ccc(NC(=O)C3CC3)cc2OC[C@H](C)N(Cc2cccc(F)c2)C[C@H]1C
12 | inactive | CC(=O)N1c2ccc(S(=O)(=O)N(C)CC(=O)NCc3ccc(C)cc3)cc2CC1C (stereo not drawn)
13 | inactive | CCC(CC)COC(=O)C1=C(C)NC(=O)NC1c1cc(OC)ccc1OC (stereo not drawn)
14 | inactive | CCCN1C[C@@H](C)[C@@H](OC)CN(C)C(=O)c2ccc(NC(=O)c3ccccc3)cc2OC[C@@H]1C
15 | inactive | CCOc1ccc(NC(=O)CN(C)C(=O)c2cc(C)nc3ccccc23)cc1OCC
16 | inactive | CCCN1C[C@@H](C)[C@@H](OC)CN(C)C(=O)c2ccc(NC(=O)CC)cc2OC[C@@H]1C
17 | inactive | O=C(COc1ccc(S(=O)(=O)NC2CCCCC2)cc1Cl)NCc1ccc2c(c1)OCO2
18 | inactive | CCCN1C[C@@H](C)[C@H](OC)CN(C)C(=O)c2ccc(NC(=O)c3ccccc3)cc2OC[C@@H]1C
19 | inactive | CC1CCN(CCCNC(=O)COc2cc(=O)n(C)c3ccccc23)CC1
20 | inactive | COc1ccccc1C(=O)Nc1ccc2c(c1)OC[C@H](C)N(CC1CC1)C[C@@H](C)[C@H](OC)CN(C)C2=O
21 | inactive | CCCN1C[C@H](C)[C@H](OC)CN(C)C(=O)c2ccc(NC(=O)c3ccccc3)cc2OC[C@H]1C
22 | inactive | CCCN1C[C@H](C)[C@@H](OC)CN(C)C(=O)c2ccc(NC(=O)CC)cc2OC[C@@H]1C
23 | inactive | Cc1nc2ccc(NC(=O)CCC3CCCC3)cc2s1
24 | inactive | CO[C@@H]1CN(C)C(=O)c2ccc(NC(C)=O)cc2OC[C@@H](C)NC[C@@H]1C
25 | inactive | COc1ccccc1S(=O)(=O)N[C@@H]1C=C[C@@H](CC(=O)N2CCOCC2)O[C@H]1CO
26 | inactive | CO[C@H]1CN(C)C(=O)c2ccc(NC(C)=O)cc2OC[C@H](C)N(C(=O)CC2CC2)C[C@H]1C
27 | inactive | COCC(=O)Nc1ccc2c(c1)OC[C@@H](C)N(CC1CC1)C[C@@H](C)[C@@H](OC)CN(C)C2=O
28 | inactive | Cn1c(C(=O)N2CCCC(Nc3ccc(F)cc3)C2)cc2ccccc21 (stereo not drawn)
29 | inactive | COC(=O)C[C@@H]1CC[C@H](NC(=O)c2ccc3c(c2)OCO3)[C@@H](CO)O1

The next lines start with the compound.

Row | SMILES | activity change, negative = inhibition
30 | CC1(C)COC(/C=C/c2cccc([N+](=O)[O-])c2)=N1 | inactive
31 | Oc1ccc(/C=N/Nc2ccnc3cc(Cl)ccc23)c(O)c1 | inactive
32 | O=C(CCCCCn1c(=S)[nH]c2cc3c(cc2c1=O)OCO3)N1CCN(C2CCCCC2)CC1 | inactive
33 | CCCCN(C(=O)c1cccc(-n2cccc2)c1)c1c(N)n(CCCC)c(=O)[nH]c1=O | inactive
34 | Oc1ccc(Br)cc1CNc1cccc2cccnc12 | inactive
35 | O=C1[C@H]2[C@@H](c3ccccc3)N[C@]3(CCCN(CC4CCCCC4)C3=O)[C@H]2C(=O)N1Cc1ccccc1 | inactive
36 | COc1ccc2cc(C(c3nnnn3C3CCCC3)N3CCc4ccccc4C3)c(=O)[nH]c2c1 (stereo not drawn) | inactive
37 | Cn1c(CSCCOc2ccccc2)n[nH]c1=S | inactive
38 | Cc1cc2c(NC(=O)Nc3ccc(F)cc3)cccc2nn1 | inactive
39 | O=C(NNS(=O)(=O)c1ccc(F)cc1)c1ccccc1F | inactive
40 | COc1ccc(-n2c(NNC(C)=O)nc3sc4c(c3c2=O)CCCC4)cc1 | inactive
41 | Cc1cccc(C(=O)Nc2cccc(NC(=O)c3ccccc3)c2)c1 | inactive
42 | Cc1ccc(NC(=O)c2ocnc2C)cc1Cl | inactive
43 | Cc1ccc(C)c(OCCC(=O)N2CCN(S(=O)(=O)c3cc(F)ccc3F)CC2)c1 | inactive
44 | N#CC1=C(N)Oc2cc(N)ccc2C1c1ccccc1 (stereo not drawn) | inactive
45 | CN(C(=O)c1ccc(Cl)cc1)c1ccc(OCC(=O)Nc2cc(C(=O)O)ccc2Cl)cc1 | inactive
46 | O=C(N/N=C/c1ccc([N+](=O)[O-])o1)c1ccccc1NS(=O)(=O)c1cccs1 | inactive
47 | COc1ccccc1NS(=O)(=O)c1cc(C(=O)NC2CCN(Cc3ccccc3)CC2)ccc1C | inactive
48 | CC1CCCCC1NS(=O)(=O)c1ccc(S(=O)(=O)N2CCN(CCC#N)CC2)cc1 (stereo not drawn) | inactive
49 | O=C(O)c1ccc(N2C(=O)CC(N3CCN(c4cccc(C(F)(F)F)c4)CC3)C2=O)cc1 (stereo not drawn) | inactive
50 | COc1ccc(NS(=O)(=O)c2cc(NC(=O)[C@H](C)NC(N)=O)ccc2N2CCCC2)cc1 | inactive
51 | O=C(NC(=C(Cl)Cl)S(=O)(=O)c1ccc(Cl)cc1)c1ccccc1 | inactive
52 | CCN(CC)C(=O)COc1ccc(/C(C)=N/NC(=O)c2ccccc2O)cc1 | inactive
53 | CCCCOc1ccc(C(=O)OCC(=O)N2CCOCC2)cc1 | inactive
54 | COc1ccc(CN=C(N)N=C(N)N)cc1Cl | inactive
55 | O=C(COC(=O)c1ccccc1OCc1ccccc1Cl)NC1CCS(=O)(=O)C1 (stereo not drawn) | inactive
56 | O=C(O)C1C=Cc2ccccc2N1C(=O)c1ccccc1 (stereo not drawn) (tested in a mixture with another compound) | inactive

Row | SMILES | activity change, negative = inhibition
57 | O=C1Nc2cc(Cl)cnc2N2CCCC12 (stereo not drawn) | inactive
58 | CC(=O)c1ccc(S(=O)(=O)N2CCN(C(=O)c3ccc(-n4cncn4)c([N+](=O)[O-])c3)CC2)cc1 | inactive
59 | O=C1NC2=C(C(=O)CCC2)C(c2cccc([N+](=O)[O-])c2)N1 (stereo not drawn) | inactive
60 | COc1cc(-c2nnc(COC(=O)c3ccc([N+](=O)[O-])o3)o2)cc(OC)c1OC | inactive
61 | O=C(O)c1cc([N+](=O)[O-])cc([N+](=O)[O-])c1N1CCN(c2cccc(C(F)(F)F)c2)CC1 | inactive
62 | CC(=O)N1CCc2c(sc(NC(=O)Cc3ccccc3)c2C(N)=O)C1 | inactive
63 | COc1cccc(S(=O)(=O)N2C[C@@H]3N[C@H](C2)C3c2ccc(-c3ccccc3C)cc2)c1 (stereo partly drawn) | inactive
64 | Cc1csc(=O)n1CCC(=O)OCc1nnc(-c2ccc([N+](=O)[O-])cc2)o1 | inactive
65 | CCOc1ccc(N2CC(C(=O)NCC(=O)Nc3ccc(F)c(F)c3F)CC2=O)cc1 (stereo not drawn) | inactive
66 | O=C(O)c1ccc(Cn2cc(/C=C\[N+](=O)[O-])c3ccccc32)o1 | inactive
67 | O=[N+]([O-])c1ccc(S(=O)(=O)N2CCC3(CC2)OCCN3S(=O)(=O)c2cccs2)cc1 | inactive
68 | Cc1ccc(N2C(=O)Cc3ccccc3C2=O)cc1 | inactive
69 | COc1cc(OC)c(NS(=O)(=O)c2c(C)[nH]c(=O)[nH]c2=O)cc1Cl | inactive
70 | CSCCC(NS(=O)(=O)c1ccccc1F)C(=O)NCC(C)(C)N1CCOCC1 (stereo not drawn) | inactive
71 | CN(c1ccccc1)S(=O)(=O)c1cccc(C(=O)OCC(=O)Nc2ccc(C(N)=O)cc2)c1 | inactive
72 | COc1ccccc1-n1c(CNC(=O)c2ccc(S(=O)(=O)N3CCCCC3)cc2)n[nH]c1=S | inactive
73 | Cc1csc(=O)n1CC(=O)OCC(=O)NCc1ccc(F)cc1 | inactive
74 | Cc1ccc(NC(=O)c2sc(C)nc2C)c(C)c1 | inactive
75 | CCN(CC)CCN(CC)Cc1ccccc1Br | inactive
76 | CC(C)CNC(=O)C1(C)CCCCCN1C(=O)c1cccnc1 (stereo not drawn) | inactive
77 | Cc1ccc(NC(=O)CCC(=O)NNC(=O)COc2ccccc2)c(C)c1 | inactive
78 | N#CC1C(=O)Nc2cccnc21 (stereo not drawn) | inactive
79 | COc1ccc(C(=O)Nc2ccc3ccccc3c2)c(OC)c1 | inactive
80 | O=C(Nc1cccc(F)c1)c1coc(=O)c(Br)c1 | inactive
81 | N/C(Cc1cccc2ccccc12)=N\OC(=O)c1ccccc1F | inactive
82 | CC(=O)Nc1cccc(NC(=O)c2cc([N+](=O)[O-])ccc2N2CCCCC2)c1 | inactive
83 | NNC(=O)CC1=NNC(=O)C1 | inactive
